The values below come from US20030219482A1, “Multiparticulate compositions for once-a-day administration” (priority 2002, published 2003).

This series can be described thus: Drug release (dissolution) of the controlled release tablets, USP apparatus Type I. The class given is physicochemical. The following applies: 900 ml phosphate buffer pH 7.5, USP Type I basket 100 rpm, Example tablet. Here is the method:
The tablets were characterized for drug release in 900 ml of phosphate buffer of pH 7.5. The USP apparatus Type I with basket speed at 100 rpm was used for the study. The samples of the media were periodically withdrawn and analyzed for drug content.

Structures can show the parent of a compound that is named as a salt.

On to `CN(C)C(=N)N=C(N)N` [Metformin Hydrochloride, Metformin hydrochloride], for which the “Cumulative percent drug released” value runs as follows: (1 hour) 28.83%; (2 hours) 49.59%; (3 hours) 64.74%; (4 hours) 78.09%; (5 hours) 88.49%; (6 hours) 93.26%. The “Cumulative percent drug released” value is reported as 97.29% (8 hours); 100.01% (10 hours); 103.93% (12 hours); 105.57% (15 hours); 105.92% (18 hours); 105.99% (21 hours). Further, the “Cumulative percent drug released” value (24 hours) was 106.47%.

With `Cc1cnc(C(=O)NCCc2ccc(S(=O)(=O)NC(=O)NC3CCCCC3)cc2)cn1` [Glipizide], the “Cumulative percent drug released” value is given as 6.5% (1 hour); 16.6% (2 hours); 27.1% (3 hours); 33.9% (4 hours); 41.5% (5 hours); 47.3% (6 hours). For the same compound, the “Cumulative percent drug released” value (8 hours) was determined as 55.4%; the “Cumulative percent drug released” value (10 hours) came out at 67.9%; the “Cumulative percent drug released” value (12 hours) came out at 75.2%; the “Cumulative percent drug released” value (15 hours) was 85.8%; the “Cumulative percent drug released” value (18 hours) came out at 93.0%; the “Cumulative percent drug released” value (21 hours) turned out to be 99.4%. The “Cumulative percent drug released” value (24 hours) came out at 102.5%.
